Experimental data: US11235041B2, “Peptides and combination of peptides for use in immunotherapy against various cancers” (Immatics Biotechnologies GmbH, priority 2015, dated 2022)

tested on: CD8+ T cells of healthy HLA-A*02+ donors; test: In vitro T-cell priming assay with artificial antigen presenting cells loaded with peptide/HLA-A*02 complexes and anti-CD28, multimer readout; type: cell-based, human; conditions: HLA-A*02-binding peptides (Table 7A); percentage class of positive wells after three stimulation cycles
Source text: FIGS. 4A to 4D show exemplary results of peptide-specific in vitro CD8+ T cell responses of a healthy HLA-A*02+ donor. CD8+ T cells were primed using artificial APCs coated with anti-CD28 mAb and HLA-A*02 in complex with SeqID No 27 peptide (FIG. 4A, left panel), SeqID No 229 peptide (FIG. 4B, left panel), SeqID No 230 peptide (FIG. 4C, left panel) and SeqID No 235 peptide (FIG. 4D, left panel), respectively. After three cycles of stimulation, the detection of peptide-reactive cells was performed by 2D multimer staining with A*02/SeqID No 27 (FIG. 4A), A*02/SeqlD No 229 (FIG. 4B), A*02/SeqlD No 230 (FIG. 4C) or A*02/SeqlD No 235 (FIG. 4D). Right panels (FIGS. 4A, 4B, 4C and 4D) show control staining of cells stimulated with irrelevant A*02/peptide complexes. Viable singlet cells were gated for CD8+ lymphocytes. Boolean gates helped excluding false-positive events detected with multimers specific for different peptides. Frequencies of specific multimer+ cells among CD8+ lymphocytes are indicated.
In order to obtain information regarding the immunogenicity of the TUMAPs of the present invention, the inventors performed investigations using an in vitro T-cell priming assay based on repeated stimulations of CD8+ T cells with artificial antigen presenting cells (aAPCs) loaded with peptide/MHC complexes and anti-CD28 antibody.
In order to perform in vitro stimulations by artificial antigen presenting cells loaded with peptide-MHC complex (pMHC) and anti-CD28 antibody, the inventors first isolated CD8+ T cells from fresh HLA-A*02 leukapheresis products via positive selection using CD8 microbeads (Miltenyi Biotec, Bergisch-Gladbach, Germany) of healthy donors obtained from the University clinics Mannheim, Germany, after informed consent.
PBMCs and isolated CD8+ lymphocytes were incubated in T-cell medium (TCM) until use consisting of RPMI-Glutamax (Invitrogen, Karisruhe, Germany) supplemented with 10% heat inactivated human AB serum (PAN-Biotech, Aidenbach, Germany), 100 U/ml Penicillin/100 μg/ml Streptomycin (Cambrex, Cologne, Germany), 1 mM sodium pyruvate (CC Pro, Oberdorla, Germany), 20 μg/ml Gentamycin (Cambrex). 2.5 ng/ml IL-7 (PromoCell, Heidelberg, Germany) and 10 U/ml IL-2 (Novartis Pharma, Nürnberg, Germany) were also added to the TCM at this step.
Generation of pMHC/anti-CD28 coated beads, T-cell stimulations and readout was performed in a highly defined in vitro system using four different pMHC molecules per stimulation condition and 8 different pMHC molecules per readout condition.
The purified co-stimulatory mouse IgG2a anti human CD28 Ab 9.3 (Jung et al., 1987) was chemically biotinylated using Sulfo-N-hydroxysuccinimidobiotin as recommended by the manufacturer (Perbio, Bonn, Germany). Beads used were 5.6 μm diameter streptavidin coated polystyrene particles (Bangs Laboratories, Illinois, USA).
pMHC used for positive and negative control stimulations were A*0201/MLA-001 (peptide […] (SEQ ID NO. 303) from modified Melan-A/MART-1) and A*0201/DDX5-001 ([…] from DDX5, SEQ ID NO. 304), respectively.
800.000 beads/200 μl were coated in 96-well plates in the presence of 4×12.5 ng different biotin-pMHC, washed and 600 ng biotin anti-CD28 were added subsequently in a volume of 200 μl. Stimulations were initiated in 96-well plates by co-incubating 1×10^6 CD8+ T cells with […] washed coated beads in 200 μl TCM supplemented with 5 ng/ml IL-12 (PromoCell) for 3 days at 37° C. Half of the medium was then exchanged by fresh TCM supplemented with 80 U/ml IL-2 and incubating was continued for 4 days at 37° C. This stimulation cycle was performed for a total of three times. For the pMHC multimer readout using 8 different pMHC molecules per condition, a two-dimensional combinatorial coding approach was used as previously described (Andersen et al., 2012) with minor modifications encompassing coupling to 5 different fluorochromes. […]

Substance	Wells (in vitro immunogenicity)
291 (KLDETGNSL; listed as Homo sapiens) [compound 291]	+ (<20% = +)
292 (GMMTAILGV; listed as Homo sapiens) [compound 292]	+ (<20% = +)
293 (FLVDGSWSI; listed as Homo sapiens) [compound 293]	+ (<20% = +)

same assay, conditions: HLA-A*02 peptides; peptide-specific multimer+ CD8+ T cells after in vitro priming; Table 19B

Substance	Wells positive [%] (in vitro immunogenicity)
5 (GIVAHIQEV; listed as Homo sapiens) [compound 5]	+ (<20%=+)
6 (ALFDSLRHV; listed as Homo sapiens) [compound 6]	++ (20%-49%=++)
7 (ILDHEVPSL; listed as Homo sapiens) [compound 7]	++ (20%-49%=++)
11 (ALSPSYLTV; listed as Homo sapiens) [compound 11]	++ (20%-49%=++)
18 (ILLDLTDNRL; listed as Homo sapiens) [compound 18]	+ (<20%=+)
20 (GLSQITNQL; listed as Homo sapiens) [compound 20]	++ (20%-49%=++)
23 (SLFSDEFKV; listed as Homo sapiens) [compound 23]	++++ (>=70%=++++)
26 (ALQEELTEL; listed as Homo sapiens) [compound 26]	+ (<20%=+)
27 (RLMEENWNA; listed as Homo sapiens) [compound 27]	+++ (50%-69%=+++)
29 (YLLDPSITL; listed as Homo sapiens) [compound 29]	+ (<20%=+)
31 (TITETTVEV; listed as Homo sapiens) [compound 31]	+ (<20%=+)
35 (FLLPFSTVYL; listed as Homo sapiens) [compound 35]	+ (<20%=+)
90 (FLQDLEQRL; listed as Homo sapiens) [compound 90]	+ (<20%=+)
96 (LLVSHLYLV; listed as Homo sapiens) [compound 96]	++ (20%-49%=++)
138 (ALLAKILQI; listed as Homo sapiens) [compound 138]	++ (20%-49%=++)
141 (FLDKVLVAA; listed as Homo sapiens) [compound 141]	+ (<20%=+)
144 (ALLAFFPGL; listed as Homo sapiens) [compound 144]	+++ (50%-69%=+++)
149 (ILNTHITEL; listed as Homo sapiens) [compound 149]	+ (<20%=+)
150 (VLYDRPLKI; listed as Homo sapiens) [compound 150]	++ (20%-49%=++)
151 (SVLDSTAKV; listed as Homo sapiens) [compound 151]	++ (20%-49%=++)
230 (KLQNIMMLL; listed as Homo sapiens) [compound 230]	++++ (>=70%=++++)
232 (KIFPAALQLV; listed as Homo sapiens) [compound 232]	++ (20%-49%=++)
233 (HLFDAFVSV; listed as Homo sapiens) [compound 233]	++ (20%-49%=++)
235 (KIIDFLSAL; listed as Homo sapiens) [compound 235]	+++ (50%-69%=+++)
247 (ALYEGYATV; listed as Homo sapiens) [compound 247]	++ (20%-49%=++)
251 (ALSVLRLAL; listed as Homo sapiens) [compound 251]	++ (20%-49%=++)
